This test addresses CDK12 (Homo sapiens, UniProt Q9NYV4). Briefly: Biochemical assay for CDK12 (LANCE TR-FRET, IC50 determination). The conditions noted are these: for IC50: CDK12, IC50 class, read-out: IC50 μM (in range); for inhibition at 10 µM: compound at 10 μM, read-out: CDK12 % Inhibition @ 10 μM. In a few lines:
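30 nM CDK12 phosphorylated 100 nM ULight-4E-BP1 (Thr37/Thr46) peptide at 100 µM ATP, as printed, in HEPES pH 7.5 buffer with MgCl2 and DTT. Compound and enzyme were preincubated 60 min, then reacted 60 min at room temperature before stopping with EDTA and Eu anti-phospho antibody. TR-FRET 665/615 ratio gave sigmoidal IC50 fits.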
For orientation: In TR-FRET formats the signal depends on donor and acceptor labels being close together.

Sequence of CDK12 (Q9NYV4 whole entry): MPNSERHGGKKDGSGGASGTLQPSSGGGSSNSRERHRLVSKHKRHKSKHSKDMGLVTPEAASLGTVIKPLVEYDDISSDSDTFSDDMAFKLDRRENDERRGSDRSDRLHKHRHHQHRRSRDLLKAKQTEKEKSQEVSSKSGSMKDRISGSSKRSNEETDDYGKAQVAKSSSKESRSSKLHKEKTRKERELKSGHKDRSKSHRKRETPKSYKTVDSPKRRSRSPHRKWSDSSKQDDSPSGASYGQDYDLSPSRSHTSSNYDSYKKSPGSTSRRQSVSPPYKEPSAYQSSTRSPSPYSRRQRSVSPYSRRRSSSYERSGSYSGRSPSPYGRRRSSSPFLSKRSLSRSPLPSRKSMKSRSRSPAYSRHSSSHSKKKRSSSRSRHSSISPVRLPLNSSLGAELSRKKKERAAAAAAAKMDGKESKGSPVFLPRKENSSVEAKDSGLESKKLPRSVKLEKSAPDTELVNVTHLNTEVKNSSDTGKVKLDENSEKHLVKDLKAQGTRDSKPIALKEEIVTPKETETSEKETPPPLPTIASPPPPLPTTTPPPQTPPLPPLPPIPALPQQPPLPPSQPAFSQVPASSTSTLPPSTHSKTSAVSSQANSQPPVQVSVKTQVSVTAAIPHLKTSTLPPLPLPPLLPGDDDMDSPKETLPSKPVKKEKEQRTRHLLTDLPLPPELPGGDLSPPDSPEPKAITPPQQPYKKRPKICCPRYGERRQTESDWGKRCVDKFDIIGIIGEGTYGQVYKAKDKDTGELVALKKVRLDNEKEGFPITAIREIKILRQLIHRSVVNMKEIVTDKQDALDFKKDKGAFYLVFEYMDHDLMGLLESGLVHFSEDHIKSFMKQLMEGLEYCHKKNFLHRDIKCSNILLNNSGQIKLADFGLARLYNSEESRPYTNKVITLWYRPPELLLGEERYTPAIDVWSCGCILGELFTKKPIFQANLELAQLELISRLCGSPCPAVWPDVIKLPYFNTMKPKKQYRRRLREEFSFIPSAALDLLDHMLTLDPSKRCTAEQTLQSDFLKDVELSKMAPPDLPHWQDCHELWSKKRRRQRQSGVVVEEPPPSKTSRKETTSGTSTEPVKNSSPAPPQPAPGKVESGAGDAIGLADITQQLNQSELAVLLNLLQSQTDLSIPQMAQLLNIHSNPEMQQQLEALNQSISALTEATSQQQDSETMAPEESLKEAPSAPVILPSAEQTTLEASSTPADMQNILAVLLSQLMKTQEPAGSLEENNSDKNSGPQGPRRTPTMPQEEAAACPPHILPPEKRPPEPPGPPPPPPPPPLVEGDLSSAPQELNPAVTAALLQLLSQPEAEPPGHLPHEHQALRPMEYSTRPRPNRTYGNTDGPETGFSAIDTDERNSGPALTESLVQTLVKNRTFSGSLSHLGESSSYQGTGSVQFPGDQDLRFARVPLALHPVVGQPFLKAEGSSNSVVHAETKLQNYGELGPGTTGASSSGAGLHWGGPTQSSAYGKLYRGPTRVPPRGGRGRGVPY
Sequence of CDK12 (O75909 whole entry partner): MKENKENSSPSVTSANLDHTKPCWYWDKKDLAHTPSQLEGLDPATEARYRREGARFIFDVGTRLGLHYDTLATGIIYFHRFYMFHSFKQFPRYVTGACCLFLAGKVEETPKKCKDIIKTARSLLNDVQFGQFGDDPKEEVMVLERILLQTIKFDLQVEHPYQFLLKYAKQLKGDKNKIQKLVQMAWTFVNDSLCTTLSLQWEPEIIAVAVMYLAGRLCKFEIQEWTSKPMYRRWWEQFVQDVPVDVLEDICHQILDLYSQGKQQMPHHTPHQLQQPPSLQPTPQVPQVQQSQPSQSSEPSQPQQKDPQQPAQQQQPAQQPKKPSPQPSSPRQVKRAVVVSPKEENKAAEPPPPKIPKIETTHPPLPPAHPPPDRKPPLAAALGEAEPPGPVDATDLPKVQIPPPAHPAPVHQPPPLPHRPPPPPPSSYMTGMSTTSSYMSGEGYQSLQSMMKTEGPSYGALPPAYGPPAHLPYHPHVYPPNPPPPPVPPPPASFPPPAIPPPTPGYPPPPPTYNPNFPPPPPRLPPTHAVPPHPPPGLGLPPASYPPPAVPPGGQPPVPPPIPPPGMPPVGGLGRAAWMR

For the molecule `CN1CCC[C@H](Oc2cc(NC(=O)Cc3ccc(C4CCN(C#N)CC4)nc3)ncc2Cl)C1` [Compound 125, (S)-N-(5-chloro-4-((1-methylpiperidin-3-yl)oxy)pyridin-2-yl)-2-(6-(1-cyanopiperidin-4-yl)pyridin-3-yl)acetamide], the IC50 is more than 0.1 µM and the inhibition at 10 µM stood at 72%.
The like results for `CN1CCC[C@@H](Oc2cc(NC(=O)Cc3ccc(C4CCN(C#N)CC4)nc3)ncc2Cl)C1` [Compound 126, (R)-N-(5-chloro-4-((1-methylpiperidin-3-yl)oxy)pyridin-2-yl)-2-(6-(1-cyanopiperidin-4-yl)pyridin-3-yl)acetamide] were, in that order, more than 0.1 µM and 52%.
As for `COc1cc(NC(=O)Cc2ccc(C3=CCN(C#N)CC3)cn2)ncc1Cl` [Compound 127, N-(5-chloro-4-methoxypyridin-2-yl)-2-(1′-cyano-1′,2′,3′,6′-tetrahydro-[3,4′-bipyridin]-6-yl)acetamide], the IC50 lay in the range of 0.01 to 0.1 µM and the inhibition at 10 µM was determined as 86%.
`CNC(=O)[C@H](C)Oc1cc(NC(=O)Cc2cnc(C3CCN(C#N)CC3)c(OC)c2)ncc1Cl` [Compound 128, (S)-2-((5-chloro-2-(2-(6-(1-cyanopiperidin-4-yl)-5-methoxypyridin-3-yl)acetamido)pyridin-4-yl)oxy)-N-methylpropanamide]: the IC50 is less than 0.01 µM and the inhibition at 10 µM is 83%.
The matching figures for `CN1CCC(Oc2cc(NC(=O)Cc3ccc(C4CCN(C#N)CC4)nc3)ncc2Cl)CC1` [Compound 129, N-(5-chloro-4-((1-methylpiperidin-4-yl)oxy)pyridin-2-yl)-2-(6-(1-cyanopiperidin-4-yl)pyridin-3-yl)acetamide]: 0.01 to 0.1 µM and 94%.
For the molecule `COc1cc(NC(=O)Cc2ccc(-c3ccc(CNC#N)nc3)nc2)ncc1Cl` [Compound 130, N-(5-chloro-4-methoxypyridin-2-yl)-2-(6′-(cyanamidomethyl)-[2,3′-bipyridin]-5-yl)acetamide], the IC50 lay in the range of 0.01 to 0.1 µM and the inhibition at 10 µM was found to be 95%.
The like results for `COc1cc(NC(=O)Cc2ccc(-c3ccc(CN(C)C#N)nc3)nc2)ncc1Cl` [Compound 131, N-(5-chloro-4-methoxypyridin-2-yl)-2-(6′-((N-methylcyanamido)methyl)-[2,3′-bipyridin]-5-yl)acetamide] were, in that order, 0.01 to 0.1 µM and 93%.
`COc1cc(NC(=O)Cc2ccc(-c3ccc(CN(C#N)C(C)C)nc3)nc2)ncc1Cl` [Compound 132, N-(5-chloro-4-methoxypyridin-2-yl)-2-(6′-((N-isopropylcyanamido)methyl)-[2,3′-bipyridin]-5-yl)acetamide]: the IC50 is more than 0.1 µM and the inhibition at 10 µM turned out to be 93%.
The matching figures for `COc1cc(NC(=O)Cc2ccc(C34CCN(C#N)CC3C4)nc2)ncc1Cl` (centres unmarked) [Compound 133]: less than 0.01 µM and 94%.
Turning to `COc1cc(NC(=O)Cc2ccc(N3CCN(C#N)CC3)nc2)ncc1Cl` [Compound 134, N-(5-chloro-4-methoxypyridin-2-yl)-2-(6-(4-cyanopiperazin-1-yl)pyridin-3-yl)acetamide], the IC50 lay in the range of 0.01 to 0.1 µM and the inhibition at 10 µM was 82%.
On to `CP(C)(=O)c1cc(NC(=O)Cc2ccc(C3=CCCN(C#N)C3)nc2)ncc1Cl` [Compound 135, N-(5-chloro-4-(dimethylphosphoryl)pyridin-2-yl)-2-(1′-cyano-1′,2′,5′,6′-tetrahydro-[2,3′-bipyridin]-5-yl)acetamide], for which the IC50 is more than 0.1 µM and the inhibition at 10 µM came to 78%.
Take `N#CN1CC=C(c2ccc(CC(=O)Nc3cc(OC4CC5(CNC5)C4)c(Cl)cn3)cn2)CC1` [Compound 137, N-(4-((2-azaspiro[3.3]heptan-6-yl)oxy)-5-chloropyridin-2-yl)-2-(1′-cyano-1′,2′,3′,6′-tetrahydro-[2,4′-bipyridin]-5-yl)acetamide]: the IC50 was in the range of 0.01 to 0.1 µM and the inhibition at 10 µM was 89%.
The matching figures for `CC1(C)CCC(Oc2cc(NC(=O)Cc3ccc(C4=CCN(C#N)CC4)nc3)ncc2Cl)CN1` (centres unmarked) [Compound 138, N-(5-chloro-4-((6,6-dimethylpiperidin-3-yl)oxy)pyridin-2-yl)-2-(1′-cyano-1′,2′,3′,6′-tetrahydro-[2,4′-bipyridin]-5-yl)acetamide]: more than 0.1 µM and 80%.
For `CC1(C)CC(Oc2cc(NC(=O)Cc3ccc(C4=CCN(C#N)CC4)nc3)ncc2Cl)CCN1` (centres unmarked) [Compound 139, N-(5-chloro-4-((2,2-dimethylpiperidin-4-yl)oxy)pyridin-2-yl)-2-(1′-cyano-1′,2′,3′,6′-tetrahydro-[2,4′-bipyridin]-5-yl)acetamide], the IC50 lay within 0.01 to 0.1 µM and the inhibition at 10 µM was 95%.
As to `COc1cc(NC(=O)Cc2ccc(-c3ccc(C#N)nc3)nc2)ncc1Cl` [Compound 140, N-(5-chloro-4-methoxypyridin-2-yl)-2-(6′-cyano-[2,3′-bipyridin]-5-yl)acetamide], the IC50 is more than 0.1 µM and the inhibition at 10 µM was 83%.
The like results for `COc1cc(NC(=O)Cc2ccc(-c3cnc(C#N)nc3)nc2)ncc1Cl` [Compound 141, N-(5-chloro-4-methoxypyridin-2-yl)-2-(6-(2-cyanopyrimidin-5-yl)pyridin-3-yl)acetamide] were, in that order, 0.01 to 0.1 µM and 92%.
With `COc1cc(NC(=O)Cc2ccc(-c3ccnc(C#N)c3)nc2)ncc1Cl` [Compound 142, N-(5-chloro-4-methoxypyridin-2-yl)-2-(2′-cyano-[2,4′-bipyridin]-5-yl)acetamide], the concentration for half-maximal inhibition (IC50) lay within 0.01 to 0.1 µM.
`CNC(=O)C(C)Oc1cc(NC(=O)Cc2ccc(-c3ccc(C#N)nc3)nc2)ncc1Cl` (centres unmarked) [Compound 143, 2-((5-chloro-2-(2-(6′-cyano-[2,3′-bipyridin]-5-yl)acetamido)pyridin-4-yl)oxy)-N-methylpropanamide]: the IC50 lay in the range of 0.01 to 0.1 µM and the inhibition at 10 µM came out at 92%.
On to `CNC(=O)C(C)Oc1cc(NC(=O)Cc2ccc(-c3ccnc(C#N)c3)nc2)ncc1Cl` (centres unmarked) [Compound 144, 2-((5-chloro-2-(2-(2′-cyano-[2,4′-bipyridin]-5-yl)acetamido)pyridin-4-yl)oxy)-N-methylpropanamide], for which the IC50 was in the range of 0.01 to 0.1 µM and the inhibition at 10 µM worked out at 92%.
With `N#Cc1cc(-c2ccc(CC(=O)Nc3cc(O[C@@H]4CCOC4)c(Cl)cn3)cn2)ccn1` [Compound 145, (R)-N-(5-chloro-4-((tetrahydrofuran-3-yl)oxy)pyridin-2-yl)-2-(2′-cyano-[2,4′-bipyridin]-5-yl)acetamide], the IC50 was 0.01 to 0.1 µM and the inhibition at 10 µM is 79%.
With `N#Cc1ccc(-c2ccc(CC(=O)Nc3cc(O[C@@H]4CCOC4)c(Cl)cn3)cn2)cn1` [Compound 146, (R)-N-(5-chloro-4-((tetrahydrofuran-3-yl)oxy)pyridin-2-yl)-2-(6′-cyano-[2,3′-bipyridin]-5-yl)acetamide], the half-inhibitory concentration (IC50) lay in the range of 0.01 to 0.1 µM and the inhibition at 10 µM is 90%.
The like results for `CNC(=O)[C@H](C)Oc1cc(NC(=O)Cc2ccc(-c3ccc(C#N)nc3)nc2)ncc1Cl` [Compound 147, (S)-2-((5-chloro-2-(2-(6′-cyano-[2,3′-bipyridin]-5-yl)acetamido)pyridin-4-yl)oxy)-N-methylpropanamide] were, in that order, 0.01 to 0.1 µM and 89%.
The matching figures for `CNC(=O)[C@H](C)Oc1cc(NC(=O)Cc2ccc(-c3ccnc(C#N)c3)nc2)ncc1Cl` [Compound 148, (S)-2-((5-chloro-2-(2-(2′-cyano-[2,4′-bipyridin]-5-yl)acetamido)pyridin-4-yl)oxy)-N-methylpropanamide]: 0.01 to 0.1 µM and 89%.
On to `COc1cc(NC(=O)Cc2ccc(-c3ccc(C#N)c(F)c3)nc2)ncc1Cl` [Compound 149, N-(5-chloro-4-methoxypyridin-2-yl)-2-(6-(4-cyano-3-fluorophenyl)pyridin-3-yl)acetamide], for which the inhibition at 10 µM was 54%.
On to `N#Cc1ncc(-c2ccc(CC(=O)Nc3cc(O[C@@H]4CCOC4)c(Cl)cn3)cn2)cn1` [Compound 150, (R)-N-(5-chloro-4-((tetrahydrofuran-3-yl)oxy)pyridin-2-yl)-2-(6-(2-cyanopyrimidin-5-yl)pyridin-3-yl)acetamide], for which the IC50 fell in the range of 0.01 to 0.1 µM and the inhibition at 10 µM turned out to be 83%.
With `CNC(=O)[C@H](C)Oc1cc(NC(=O)Cc2ccc(-c3cnc(C#N)nc3)nc2)ncc1Cl` [Compound 151, (S)-2-((5-chloro-2-(2-(6-(2-cyanopyrimidin-5-yl)pyridin-3-yl)acetamido)pyridin-4-yl)oxy)-N-methylpropanamide], the IC50 was 0.01 to 0.1 µM and the inhibition at 10 µM came out at 79%.
For `COc1cc(NC(=O)Cc2ccc(-c3cccc(C#N)n3)cc2)ncc1Cl` [Compound 152, N-(5-chloro-4-methoxypyridin-2-yl)-2-(4-(6-cyanopyridin-2-yl)phenyl)acetamide], the IC50 is more than 0.1 µM.
Take `COc1cc(NC(=O)Cc2ccc(-c3cccc(C#N)n3)c(F)c2)ncc1Cl` [Compound 153, N-(5-chloro-4-methoxypyridin-2-yl)-2-(4-(6-cyanopyridin-2-yl)-3-fluorophenyl)acetamide]: the inhibition at 10 µM stood at 34%.
Consider `N#Cc1cccc(-c2ccc(CC(=O)Nc3cc(O[C@@H]4CCOC4)c(Cl)cn3)cn2)n1` [Compound 154, (R)-N-(5-chloro-4-((tetrahydrofuran-3-yl)oxy)pyridin-2-yl)-2-(6′-cyano-[2,2′-bipyridin]-5-yl)acetamide], for which the IC50 was less than 0.01 µM and the inhibition at 10 µM is 77%.
With `COc1cc(NC(=O)Cc2ccc(-c3cccc(C#N)n3)nc2)ncc1Cl` [Compound 156, N-(5-chloro-4-methoxypyridin-2-yl)-2-(6′-cyano-[2,2′-bipyridin]-5-yl)acetamide], the IC50 is less than 0.01 µM and the inhibition at 10 µM worked out at 80%.

As a reminder, the IC50 is the concentration that inhibits the measured activity by half. One may read the inhibition as the percentage by which the read-out fell short of the control.
